Test results as given in patent US20220354815A1, “OKN-007 AS A THERAPEUTIC AGENT” (Oklahoma Medical Research Foundation, priority 2019, published 2022).

Columns and labels:
CS99 cells = assay: Endometrial cancer in vivo, CS99 cells i.p. in athymic nude mice (survival, MRI tumor volume); design: species or system mouse
Procedure: CS99 cells were obtained from K. Moxley (OUHSC). 10^6 cells were injected i.p. into Athymic Nude Foxnlnu mice (Envigo) mice. Gd-DTPA (MRI contrast agent; administered i.v. via a tail-vein-catheter) was used to detect tumors. OKN-077 was administered 150 mg/kg daily in drinking water.

Sodl G93A mutant mice [1] = assay: Spinal cord histology (NeuN motor neuron counts, microglia, astrocytes) in G93A mice; type: in vivo, mouse
Procedure: (§1) ALS is a debilitating disease that according to the ALS Association affects two per 100,000 people in the USA. There is no cure and the average survival time after diagnosis is three years. In this study, the inventors investigated the impact of treatment with […], an antioxidant, on ALS progression. Female Sodl G93A mutant mice, an established mouse model of ALS, and wildtype (wt) mice were treated with OKN-077 for three months starting at the age of 60 days, before the mice became symptomatic, and compared to age matched untreated controls (both transgenic and wt). Disease progression measured by monitoring disease score on a scale of 1-5 (based on hind limb paralysis and dysfunction) was delayed in the treated mice. All treated mice were at stage 2 at the time of sacrifice at 145 days (end stage disease is ˜160 days), while untreated transgenic controls had progressed to stage ≥2. […] The untreated transgenic control mice had on average 10.7 ±2.1 alpha motor neurons per ventral horn, while the treated transgenic mice had 17.5 ±4.5 alpha motor neurons (a 64% increase). […] These findings indicate that OKN-077 may potentially be considered as a possible therapeutic agent for ALS, and certainly warrants further investigation.

normal cells = assay: Effects on normal cells; details: stated without data
[2] = system: orthotopic GBM xenografts; details: cited from earlier work
Sodl G93A mutant mice [3] = assay: MRI (diffusion, perfusion) and MR spectroscopy of spinal cord in G93A mice; type: in vivo, mouse
Procedure: as §1

Sodl G93A mutant mice [4] = assay: ALS disease progression score in Sod1 G93A mutant mice; type: in vivo, mouse
Procedure: as §1

TGF-β1 = TGF-β1 pathway expression; details: gene not directly down-regulated; stated without data
CD44v6 = CD44v6 biomarker regulation; details: biomarker directly associated with metastasis; stated without data
[5] = Towner et al., Translational Oncology 2019
[6] = previous assessment by the inventors

For `CC(C)(C)/[N+]([O-])=C/c1ccc(S(=O)(=O)[O-])cc1S(=O)(=O)[O-].[Na+].[Na+]` [OKN-077, 2,4-Disulfonyl-N-Tert-Butylnitrone, 2,4-disulfonyl α-phenyl tertiary butyl nitrone], the “Survival of tumor-bearing mice compared to untreated (UT)” value (CS99 cells; 150 mg/kg daily in drinking water, FIG. 7) was “significant increase”, the “Tumor size on MR images at 21 days after CS99 cell implantations” value (CS99 cells; compared to untreated tumors, FIG. 8) was “consistently small tumors” and the “Tumor volumes compared to UT mice” value (CS99 cells; ~21 days after cell implantation, p<0.0001, FIG. 9) was “significantly decrease”. The Motor neuron loss (Sodl G93A mutant mice [1]; NeuN stained ventral horn, treated vs untreated G93A p=0.0197) was “prevents”, the Astrocyte activation (Sodl G93A mutant mice [1]; mouse, in vivo) was “didn't affect” and the “Alpha motor neurons per ventral horn” value (Sodl G93A mutant mice [1]; treated transgenic mice, untreated transgenic 10.7 ±2.1) was 17.5 ±4.5. For the same compound, the Microglia activation (Sodl G93A mutant mice [1]; treated vs untreated G93A mice) was “decreases”, the “Ramified, non-activated microglia” value (Sodl G93A mutant mice [1]; treated vs untreated G93A mice, p=0.0026) was “significantly more” and the “Increase in alpha motor neurons versus untreated transgenic mice” value (Sodl G93A mutant mice [1]; treated vs untreated transgenic mice) was 64%. For the same compound, the Astrocyte proliferation (Sodl G93A mutant mice [1]; treatment p=0.23, FIGS. 5B and 5C) was “doesn't affect”, the “Microglia proliferation (number of Ibal+ cells)” value (Sodl G93A mutant mice [1]; two-way ANOVA, treatment p=0.0244, FIG. 5A) was “treatment effect” and the “Adverse effects on normal cells” value (normal cells) was “no adverse effects”. For the same compound, the “TMZ-Resistant Glioblastoma (GBM) tumor growth” value [2, 5] was “suppresses”, the “Temozolomide (TMZ) sensitivity” value [2, 5] was “increases” and the “Survival in orthotopic GBM xenografts” value [2, 6] was “increasing”. For the same compound, the “Tumor volumes in orthotopic GBM xenografts” value [2, 6] was “decreasing”, the “Myo-inositol (Myo-Ins)/creatine ratio by MRS” value (Sodl G93A mutant mice [3]; stated for ALS c (non-treated) vs ALS t (treated) mice, FIG. 6C) was “significant decrease” and the “Spinal cord metabolite myo-inositol” value (Sodl G93A mutant mice [3]; treated vs untreated) was “significantly elevated”. For the same compound, the “Apparent diffusion coefficient (ADC) in the lumbar region of the spinal cord” value (Sodl G93A mutant mice [3]; treated vs untreated, p<0.001) was “decreased”, the “Relative tissue blood flow in the spinal cord” value (Sodl G93A mutant mice [3]; treated vs untreated, p<0.01) was “significantly increase” and the “ADC in the surrounding muscle tissue” value (Sodl G93A mutant mice [3]; treated vs untreated, p<0.05) was “increased”. The “Delay in reaching the score of 2 versus untreated G93A mice” value (Sodl G93A mutant mice [4]; FIG. 2C) was “around 14 days”, the “Highest disease score reached” value (Sodl G93A mutant mice [4]; FIG. 2D, untreated G93A mice reached score 3 around 136 days of age) was ≤ 2 and the “Disease progression (disease score based on hind limb paralysis and dysfunction)” value (Sodl G93A mutant mice [4]; female G93A mice treated three months from age 60 days, vs untreated transgenic controls) was “delayed”. The “Disease stage at the time of sacrifice” value (Sodl G93A mutant mice [4]; sacrifice at 145 days, scale of 1-5, all treated mice) was 2, the Disease onset (Sodl G93A mutant mice [4]; treated vs untreated G93A mice (FIG. 2B)) was “doesn't delay” and the TGF-β1 protein expression (TGF-β1) was “decreased”. The CD44v6 regulation (CD44v6) was “downregulates”.
